# Experimental data: US20120156137A1, “COMPOSITION FOR TREATMENT OF ATOPIC DERMATITIS COMPRISING GLUCOSAMINE AND DERIVATIVES THEREOF AND A METHOD FOR TREATMENT OF ATOPIC DERMATITIS USING THEM” (priority 2006, published 2012)
# Tests used:
# transglutaminase = settings: as described in Korean Pat. Application No. 10-2006-56942; cited from earlier work
# [1] = system: TPA-induced mouse ear edema model; assay: Anti-inflammatory activity of glucosamine topically applied to the TPA-induced mouse ear edema model; type: in vivo; settings: male ICR mice; topical 0.5%, 1% or 2% glucosamine 15 min and 6 hrs after TPA; read 24 hrs after TPA
# Description: Ear edema was induced in mice using 12-O-tetradecanoylphorbol 13-acetate (TPA), as follows. TPA was prepared at 2.5[…]/20[…] in acetone. ICR mice were prepared one week before this test and allowed free access to food and water in order to minimize the stress of transport. 20[…] of the TPA solution was applied onto right ears of male ICR mice (7 weeks old). After 24 hrs, mice were sacrificed by cervical dislocation, and the right ears were punched using a 6-mm biopsy punch. The ear punches were weighed using a microbalance, finely teased, and subjected to a myeloperoxidase (MPO) assay. Thirty male ICR mice (7 weeks old, weighing 25-32 g) were divided into six groups, each of which consisted of five mice. Experimental animals were allowed free access to food and water for one week in order to minimize the stress of transport. Glucos amine and a control drug were diluted in sterile distilled water and then diluted 1:9 in acetone. Group 1 was not treated with TPA or any drug. Group 2 was treated with TPA alone on the right ear skin thereof. Group 3 was topically treated with TPA, and then with 20[…] of 0.5% glucosamine in sterile distilled water/acetone (1:9) 15 min and 6 hrs after TPA application. According to the same procedure as in Group 3, Group 4 was topically treated with 1% glucosamine, and Group 5 with 2% glucosamine. […]
# atopy patients = assay: Clinical test for therapeutic effects of glucosamine on atopy; type: in vivo, human; settings: twenty atopy patients
# Description: A clinical test was performed with twenty atopy patients in order to determine whether glucosamine has therapeutic effects on atopy in practice. The clinical test was conducted by the Department of Dermatology, Dongguk University Hospital (attending physician: A Y Lee; the clinical test was approved by an IRB of Dongguk University Hospital). Twenty atopy patients were dosed with glucosamine in the form of a tablet and a cream. In brief, glucosamine was orally administered at a daily dose of 500 mg for a period of two weeks. The cream (5% glucosamine) was topically applied to a desired site of the skin twice a day for a period of four weeks.
# [2] = system: TPA-induced mouse ear edema model; assay: Anti-inflammatory activity of glucosamine orally administered to the TPA-induced mouse ear edema model; type: in vivo; settings: male ICR mice; oral 5, 10 or 20 mg/kg glucosamine 15 min and 6 hrs after TPA; read 24 hrs after TPA
# Description: Ear edema was induced in mice using 12-O-tetradecanoylphorbol 13-acetate (TPA), as follows. TPA was prepared at 2.5[…]/20[…] in acetone. ICR mice were prepared one week before this test and allowed free access to food and water in order to minimize the stress of transport. 20[…] of the TPA solution was applied onto right ears of male ICR mice (7 weeks old). After 24 hrs, mice were sacrificed by cervical dislocation, and the right ears were punched using a 6-mm biopsy punch. The ear punches were weighed using a microbalance, finely teased, and subjected to a myeloperoxidase (MPO) assay. Thirty five male ICR mice (7 weeks old, weighing 25-32 g) were divided into seven groups, each of which consisted of five mice. Experimental animals were allowed free access to food and water for one week in order to minimize the stress of transport. Glucosamine and a control drug were diluted in sterile physiological saline. Group 1 was not treated with TPA or any drug. Group 2 was treated with TPA alone on the right ear skin thereof. Group 3 was topically applied with TPA, and then orally administered through a sonde with 0.5 ml of glucosamine in sterile physiological saline 15 min and 6 hrs after TPA application. […]
structure (smiles),measurement,setting,value
N[C@H]1C(O)O[C@H](CO)[C@@H](O)[C@@H]1O (some centres unmarked) [glucosamine],inhibitory activity toward transglutaminase,transglutaminase,has inhibitory activity toward transglutaminase
same,"inhibition of acute inflammation (ear punch weight and MPO activity, FIGS. 1 and 2)",[1],inhibit acute inflammation regardless of concentrations thereof
same,"therapeutic effects on atopy, external use (FIG. 5)",atopy patients; cream (5% glucosamine) topically twice a day for four weeks,significant therapeutic effects on atopy
same,"therapeutic effects on atopy, oral administration (FIG. 5)","atopy patients; tablet, oral daily dose 500 mg for two weeks",significant therapeutic effects on atopy
same,"inhibition of acute inflammation (ear punch weight and MPO activity, FIGS. 3 and 4)",[2],inhibited acute inflammation regardless of the concentration thereof
